From ChEMBL document CHEMBL1201862, “PubChem BioAssay data set” (2004)
One block for each compound: values may come before it. Activity calls are given as the source filed them.

Columns and labels:
Protein Wnt-3a = Protein Wnt-3a (Mus musculus, UniProt P27467); assay: SAR analysis of small molecule antagonists of Gli-SUFU in a Wnt3a luminescent reporter assay.; format: functional
[1] = biological target: Protein disulfide-isomerase (Homo sapiens, UniProt P07237); assay: PDI inhibitors, insulin turbidity readout, confirmation, biochemical, dry powder samples, set 2 (AID 652146)
Sequence of Protein disulfide-isomerase (P07237 whole entry): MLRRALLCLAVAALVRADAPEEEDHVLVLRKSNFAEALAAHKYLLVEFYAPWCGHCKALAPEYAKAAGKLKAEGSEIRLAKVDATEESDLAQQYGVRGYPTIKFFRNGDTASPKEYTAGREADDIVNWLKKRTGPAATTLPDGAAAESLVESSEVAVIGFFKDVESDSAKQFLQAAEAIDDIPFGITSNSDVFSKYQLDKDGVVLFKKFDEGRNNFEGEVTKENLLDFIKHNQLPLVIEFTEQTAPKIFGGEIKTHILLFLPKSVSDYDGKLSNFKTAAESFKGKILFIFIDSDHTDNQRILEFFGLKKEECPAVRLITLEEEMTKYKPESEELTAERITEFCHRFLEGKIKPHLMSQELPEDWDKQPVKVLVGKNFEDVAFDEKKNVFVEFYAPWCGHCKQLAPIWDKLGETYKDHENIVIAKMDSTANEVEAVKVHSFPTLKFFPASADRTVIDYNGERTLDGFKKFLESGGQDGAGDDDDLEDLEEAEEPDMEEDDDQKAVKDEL

[2] = biological target: DNA repair and recombination protein RAD54-like (Homo sapiens, UniProt Q92698); assay: inhibitors of human RAD54 branch migration, confirmation, biochemical, fluorescence, cherry-picked samples, dose series (AID 651657); format: functional
Sequence of DNA repair and recombination protein RAD54-like (Q92698 whole entry): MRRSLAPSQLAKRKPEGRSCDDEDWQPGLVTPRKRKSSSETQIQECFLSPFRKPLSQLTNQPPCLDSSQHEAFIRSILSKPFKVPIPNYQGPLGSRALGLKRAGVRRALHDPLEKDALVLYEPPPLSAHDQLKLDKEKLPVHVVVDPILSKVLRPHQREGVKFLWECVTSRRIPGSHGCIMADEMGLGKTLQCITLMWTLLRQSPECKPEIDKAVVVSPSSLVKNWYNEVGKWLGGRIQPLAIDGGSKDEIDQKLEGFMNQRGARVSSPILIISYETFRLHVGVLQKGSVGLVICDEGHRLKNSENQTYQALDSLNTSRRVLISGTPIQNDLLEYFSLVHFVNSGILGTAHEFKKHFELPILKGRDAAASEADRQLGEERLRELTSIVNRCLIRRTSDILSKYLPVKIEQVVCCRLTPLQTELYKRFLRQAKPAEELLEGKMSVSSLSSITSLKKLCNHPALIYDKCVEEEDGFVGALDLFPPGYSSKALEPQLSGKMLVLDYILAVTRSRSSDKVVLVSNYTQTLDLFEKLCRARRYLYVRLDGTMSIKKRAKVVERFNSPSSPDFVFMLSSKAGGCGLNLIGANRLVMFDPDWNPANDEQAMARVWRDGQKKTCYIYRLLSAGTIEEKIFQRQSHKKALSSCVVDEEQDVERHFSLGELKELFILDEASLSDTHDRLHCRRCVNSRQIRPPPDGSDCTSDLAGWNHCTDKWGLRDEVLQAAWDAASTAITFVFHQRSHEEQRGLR

[3] = biological target: DNA repair protein RAD52 homolog (Homo sapiens, UniProt P43351); format: functional, biochemical
Sequence of DNA repair protein RAD52 homolog (P43351 whole entry): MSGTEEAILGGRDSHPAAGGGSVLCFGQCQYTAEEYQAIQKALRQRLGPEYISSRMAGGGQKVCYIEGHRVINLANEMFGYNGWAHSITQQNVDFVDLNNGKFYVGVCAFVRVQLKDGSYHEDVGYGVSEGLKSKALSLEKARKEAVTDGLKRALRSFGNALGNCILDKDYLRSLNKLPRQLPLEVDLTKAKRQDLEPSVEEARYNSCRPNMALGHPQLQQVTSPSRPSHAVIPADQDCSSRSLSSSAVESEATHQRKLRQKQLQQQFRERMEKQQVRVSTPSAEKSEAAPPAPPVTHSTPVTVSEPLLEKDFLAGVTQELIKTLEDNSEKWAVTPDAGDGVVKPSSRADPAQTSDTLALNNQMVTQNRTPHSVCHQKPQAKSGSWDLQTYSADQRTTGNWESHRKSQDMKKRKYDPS

[4] = biological target: FAD-linked sulfhydryl oxidase ALR (Homo sapiens, UniProt P55789); assay: inhibitors of human ALR sulfhydryl oxidase, dose response, biochemical, H2O2 detection, luminescence, cherry-pick (AID 493248)
Sequence of FAD-linked sulfhydryl oxidase ALR (P55789 whole entry, the tested form may be a part): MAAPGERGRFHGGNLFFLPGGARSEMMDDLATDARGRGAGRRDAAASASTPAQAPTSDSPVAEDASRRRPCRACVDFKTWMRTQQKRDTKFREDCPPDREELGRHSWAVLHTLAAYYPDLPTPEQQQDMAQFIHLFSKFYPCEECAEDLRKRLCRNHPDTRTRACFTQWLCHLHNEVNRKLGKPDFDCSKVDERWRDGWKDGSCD

[5] = biological target: T1, Oxysterols receptor LXR-beta (Homo sapiens, UniProt P55055); format: functional, cell-based;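 note: agonist activity at LXR measured by a cell-based luminescence readout across a dose range, run as a counterscreen for daf-12 agonists; HEK293 cells with Gal4-LXR fusion and GAL4-driven luciferase reporter; potency for activation of Gal4-LXR reporter so compounds are agonists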
T1 sequence (P55055 whole entry): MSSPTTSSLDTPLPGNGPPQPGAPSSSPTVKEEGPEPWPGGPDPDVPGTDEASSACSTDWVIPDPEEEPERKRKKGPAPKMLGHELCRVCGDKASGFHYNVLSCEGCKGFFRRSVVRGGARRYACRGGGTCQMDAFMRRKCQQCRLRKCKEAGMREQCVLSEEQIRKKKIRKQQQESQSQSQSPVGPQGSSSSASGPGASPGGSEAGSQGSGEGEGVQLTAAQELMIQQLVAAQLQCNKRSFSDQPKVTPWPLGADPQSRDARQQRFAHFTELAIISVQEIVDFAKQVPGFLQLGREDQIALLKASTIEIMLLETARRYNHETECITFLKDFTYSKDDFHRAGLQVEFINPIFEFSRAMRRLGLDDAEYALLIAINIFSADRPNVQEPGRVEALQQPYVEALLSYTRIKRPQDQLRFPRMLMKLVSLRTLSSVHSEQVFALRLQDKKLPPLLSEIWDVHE

[6] = T. cruzi growth inhibition in host cells, dose response, cell-based, plate reader, dry powder, set 2 (AID 652275); format: functional
[7] = inhibitors of intracellular T. cruzi replication, confirmation, NIH3T3 host cells, beta-gal luminescence (AID 2044); format: functional, cell-based;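 note: intracellular parasites grown in NIH/3T3 mouse fibroblasts as host cells; luminescent beta-galactosidase reporter signal from transgenic T. cruzi replicating inside host cells; inhibitors lower the luminescence signal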
[8] = cytotoxicity toward NIH3T3 fibroblasts, dose response, counter-screen, cell-based, ATP luminescence, mouse fibroblasts (AID 2010); format: functional;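 note: cells exposed to compound for about 90 hours before reading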
Trypsin = Trypsin (Sus scrofa, UniProt P00761); assay: porcine trypsin inhibitors, dose response, selectivity assay for Rce1 protease inhibitor project, biochemical, quenched peptide fluorescence, cherry-pick (AID 488789)
Sequence of Trypsin (P00761 whole entry): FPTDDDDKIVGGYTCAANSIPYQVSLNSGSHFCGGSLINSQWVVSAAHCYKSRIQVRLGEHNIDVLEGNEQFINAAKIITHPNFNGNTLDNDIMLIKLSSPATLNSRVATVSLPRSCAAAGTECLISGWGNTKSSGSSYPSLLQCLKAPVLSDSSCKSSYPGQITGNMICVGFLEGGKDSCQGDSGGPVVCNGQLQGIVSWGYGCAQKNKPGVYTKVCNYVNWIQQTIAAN

[9] = biological target: T2, Ubiquitin-conjugating enzyme E2 N (Homo sapiens, UniProt P61088); format: functional;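 note: Dose-response confirmation in a TR-FRET assay detecting UBC13-driven polyubiquitin chain formation, inhibition measured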
T2 sequence (P61088 whole entry): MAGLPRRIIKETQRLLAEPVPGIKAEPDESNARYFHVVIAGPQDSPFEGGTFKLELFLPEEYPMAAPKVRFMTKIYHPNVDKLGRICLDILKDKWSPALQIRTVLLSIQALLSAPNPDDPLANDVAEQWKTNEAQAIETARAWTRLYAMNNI

CAAX prenyl protease 2 = biological target: T3, CAAX prenyl protease 2 (Homo sapiens, UniProt Q9Y256); assay: human Rce1 protease inhibitors, dose response, biochemical, yeast membranes, quenched-peptide fluorescence, cherry-pick (AID 588849)
T3 sequence (Q9Y256 whole entry): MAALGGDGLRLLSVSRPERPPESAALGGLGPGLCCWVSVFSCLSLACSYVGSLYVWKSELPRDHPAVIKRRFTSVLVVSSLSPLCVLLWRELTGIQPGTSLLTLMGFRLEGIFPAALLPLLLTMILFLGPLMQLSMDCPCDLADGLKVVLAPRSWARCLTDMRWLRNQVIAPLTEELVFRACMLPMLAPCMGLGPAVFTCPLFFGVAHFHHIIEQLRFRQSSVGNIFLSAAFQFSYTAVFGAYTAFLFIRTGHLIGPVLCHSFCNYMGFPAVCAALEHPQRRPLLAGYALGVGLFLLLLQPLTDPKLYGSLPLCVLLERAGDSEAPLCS

[10] = biological target: T4, High affinity choline transporter 1 (Homo sapiens, UniProt Q9GZV3); assay: CHT inhibitors, dose response, cell-based, 5-point CRC, membrane potential dye (AID 504840); format: functional
T4 sequence (Q9GZV3 whole entry): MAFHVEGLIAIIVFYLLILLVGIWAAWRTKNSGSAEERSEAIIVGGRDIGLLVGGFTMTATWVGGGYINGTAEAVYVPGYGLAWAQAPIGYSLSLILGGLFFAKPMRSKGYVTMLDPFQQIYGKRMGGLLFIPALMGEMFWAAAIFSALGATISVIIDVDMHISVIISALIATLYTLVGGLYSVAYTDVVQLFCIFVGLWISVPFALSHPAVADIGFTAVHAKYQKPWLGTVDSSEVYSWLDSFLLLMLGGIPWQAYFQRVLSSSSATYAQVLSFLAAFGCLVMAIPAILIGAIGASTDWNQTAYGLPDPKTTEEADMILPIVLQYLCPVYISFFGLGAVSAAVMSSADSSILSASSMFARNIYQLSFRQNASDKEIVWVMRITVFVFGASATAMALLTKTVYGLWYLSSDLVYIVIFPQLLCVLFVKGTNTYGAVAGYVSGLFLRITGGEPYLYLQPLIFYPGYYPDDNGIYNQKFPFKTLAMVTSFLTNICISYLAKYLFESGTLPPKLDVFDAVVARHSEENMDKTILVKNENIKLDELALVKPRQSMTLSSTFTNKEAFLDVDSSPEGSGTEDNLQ

[11] = human group III sPLA2 inhibitors, dose response, biochemical, QFRET, IC50 (AID 743457);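 note: green fluorescence rise as the enzyme cleaves BODIPY PC-A2 in liposomes; potency for inhibition of the enzyme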
[12] = HepG2 cell cytotoxicity, dose response, cytotoxicity control, ATP luminescence, cherry-pick, activator set 2 (AID 1053143); format: functional, cell-based

Sequence of Protein Wnt-3a (P27467 whole entry): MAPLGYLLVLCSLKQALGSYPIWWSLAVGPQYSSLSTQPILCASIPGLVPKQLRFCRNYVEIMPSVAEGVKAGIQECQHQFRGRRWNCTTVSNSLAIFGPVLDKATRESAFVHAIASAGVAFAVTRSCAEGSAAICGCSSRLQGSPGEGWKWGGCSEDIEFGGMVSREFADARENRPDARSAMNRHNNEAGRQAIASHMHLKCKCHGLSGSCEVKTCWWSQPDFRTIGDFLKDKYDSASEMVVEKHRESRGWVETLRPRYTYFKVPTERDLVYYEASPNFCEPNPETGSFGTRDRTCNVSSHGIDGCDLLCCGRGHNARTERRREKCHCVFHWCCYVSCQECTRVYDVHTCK

Compound: CCN(CC)c1cc(NC(=O)c2cc(OC)cc(OC)c2)ncn1
IC50 (Protein Wnt-3a): > 21.8 µM (inactive)

Compound: CC(C)N1CC2(CN(Cc3ccc(-c4cccnc4)cc3)C2)Oc2c(NC(=O)c3ccncc3)cccc2C1=O
AC50 [6]: 0.179 µM (active)

Compound: O=C(c1ccc(F)cc1)N1CCCCN2[C@@H](CO)[C@H](c3ccc(-c4ccccc4)cc3)[C@@H]2C1
AC50 [6]: 2.56 µM (active)

Compound: CCOC(=O)c1c(-c2ccccc2)oc2ccc(OCC(O)CNCCN(C)C)cc12 (stereo not drawn)
EC50 [7]: 1.79 µM (active) | EC50 [8]: 5.42 µM (active) | AC50 (Trypsin): 10.3 µM (active) | IC50 [9]: > 20 µM (inactive) | AC50 (CAAX prenyl protease 2): 11.8 µM (active) | AC50 [3]: 5 µM (active)

Compound: O=C(NN=C(S)Nc1ccc(F)cc1)C1CC1c1ccc(Cl)cc1 (stereo not drawn)
IC50 [10]: 13.2 µM (active) | IC50 [11]: > 122 µM (inactive)

Compound: Cc1ncoc1C(=O)Nc1ncc([N+](=O)[O-])s1
AC50 [12]: 26 µM (active)

Second part, the compound after the results:

IC50 (Protein Wnt-3a): > 21.8 µM (inactive)
Compound: CCN(CC)c1cc(NC(=O)c2ccccc2)ncn1

AC50 [1]: 5 µM (active)
Compound: O=C(NC1CCCC1)C1(CCOc2ccccc2)CCN(Cc2ccc(O)c(Cl)c2)CC1

AC50 [2]: 24.6 µM (active) | AC50 [3]: 10.5 µM (active)
Compound: CN(C)CCCN(C(=O)c1ccc([N+](=O)[O-])o1)c1nc2cc3c(cc2s1)OCO3

AC50 [4]: 0.907 µM (active) | EC50 [5]: > 67.5 µM (inactive)
Compound: Cc1nn(-c2ccccc2)c(Cl)c1/C=N/Nc1ccc(Cl)c(C(=O)O)c1
